Patent US20260297081A1, “COMPOUNDS AND METHODS OF TREATING CANCERS” (Cullgen Inc., priority 2023, published 2026)

Experiments:
Assay type in all cases: cell-based
[1] = test system: Calu-1 cells; assay: Anti-proliferation (viability) of NSCLC Calu-1 cells, 3 days (Table 7, FIG. 2B); conditions: Homo sapiens, 72 h; Calu-1 cells, 3 days, 10-point serial dilution; read-out: GI IC50 in Calu-1
Outline: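 Heterobifunctional compounds are tested in 10-point serial dilutions on Calu-1 (3-day exposure) and T47D (6-day exposure) cells.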

[2] = biological target: CDK4 (Homo sapiens, UniProt P11802+Q16531); assay: CDK4 percentage degradation in Calu-1 cells (Table 6); design: Cells that express cyclin D1-3 and CDK4/6 proteins were treated with heterobifunctional compounds; endogenous in cells; host or cells: Calu-1; conditions: 16 hours; for inhibition at 0.04 µM: 40 nM; for inhibition at 0.2 µM: 200 nM
Outline: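 Calu-1 cells exposed to heterobifunctional compounds at 40 nM or 200 nM for 16 h. Cyclin D1 and CDK4 levels measured by Western blot of RIPA lysates (BCA-normalised loading), bands quantified by densitometry and expressed as percentage degradation.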

[3] = test system: MCF7 cells; assay: Anti-proliferation (viability) of MCF7 cells (Table 7, FIG. 2B); conditions: Homo sapiens, MCF7, MCF7 cells, 3-6 days, 10-point serial dilution; read-out: GI IC50 in MCF-7

CDK4, sequence (P11802 2-303 limits assumed): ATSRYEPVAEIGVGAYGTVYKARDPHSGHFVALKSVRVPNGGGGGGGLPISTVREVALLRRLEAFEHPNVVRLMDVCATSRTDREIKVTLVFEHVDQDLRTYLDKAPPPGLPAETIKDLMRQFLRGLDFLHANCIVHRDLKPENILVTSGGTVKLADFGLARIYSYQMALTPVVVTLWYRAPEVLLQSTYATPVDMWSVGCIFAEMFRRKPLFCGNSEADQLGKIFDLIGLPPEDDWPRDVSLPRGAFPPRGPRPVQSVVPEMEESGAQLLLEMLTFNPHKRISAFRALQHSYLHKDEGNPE
CDK4, sequence (P24385 whole entry partner): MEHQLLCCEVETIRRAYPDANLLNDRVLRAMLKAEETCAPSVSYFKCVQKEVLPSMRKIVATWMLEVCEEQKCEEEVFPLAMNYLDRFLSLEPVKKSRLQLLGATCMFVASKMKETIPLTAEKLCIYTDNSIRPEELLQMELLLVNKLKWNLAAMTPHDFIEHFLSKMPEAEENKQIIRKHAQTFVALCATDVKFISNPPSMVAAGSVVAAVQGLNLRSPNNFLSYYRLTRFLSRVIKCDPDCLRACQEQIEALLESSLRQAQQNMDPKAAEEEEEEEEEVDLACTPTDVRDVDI
CDK4, sequence (Q16531 2-1140 limits assumed): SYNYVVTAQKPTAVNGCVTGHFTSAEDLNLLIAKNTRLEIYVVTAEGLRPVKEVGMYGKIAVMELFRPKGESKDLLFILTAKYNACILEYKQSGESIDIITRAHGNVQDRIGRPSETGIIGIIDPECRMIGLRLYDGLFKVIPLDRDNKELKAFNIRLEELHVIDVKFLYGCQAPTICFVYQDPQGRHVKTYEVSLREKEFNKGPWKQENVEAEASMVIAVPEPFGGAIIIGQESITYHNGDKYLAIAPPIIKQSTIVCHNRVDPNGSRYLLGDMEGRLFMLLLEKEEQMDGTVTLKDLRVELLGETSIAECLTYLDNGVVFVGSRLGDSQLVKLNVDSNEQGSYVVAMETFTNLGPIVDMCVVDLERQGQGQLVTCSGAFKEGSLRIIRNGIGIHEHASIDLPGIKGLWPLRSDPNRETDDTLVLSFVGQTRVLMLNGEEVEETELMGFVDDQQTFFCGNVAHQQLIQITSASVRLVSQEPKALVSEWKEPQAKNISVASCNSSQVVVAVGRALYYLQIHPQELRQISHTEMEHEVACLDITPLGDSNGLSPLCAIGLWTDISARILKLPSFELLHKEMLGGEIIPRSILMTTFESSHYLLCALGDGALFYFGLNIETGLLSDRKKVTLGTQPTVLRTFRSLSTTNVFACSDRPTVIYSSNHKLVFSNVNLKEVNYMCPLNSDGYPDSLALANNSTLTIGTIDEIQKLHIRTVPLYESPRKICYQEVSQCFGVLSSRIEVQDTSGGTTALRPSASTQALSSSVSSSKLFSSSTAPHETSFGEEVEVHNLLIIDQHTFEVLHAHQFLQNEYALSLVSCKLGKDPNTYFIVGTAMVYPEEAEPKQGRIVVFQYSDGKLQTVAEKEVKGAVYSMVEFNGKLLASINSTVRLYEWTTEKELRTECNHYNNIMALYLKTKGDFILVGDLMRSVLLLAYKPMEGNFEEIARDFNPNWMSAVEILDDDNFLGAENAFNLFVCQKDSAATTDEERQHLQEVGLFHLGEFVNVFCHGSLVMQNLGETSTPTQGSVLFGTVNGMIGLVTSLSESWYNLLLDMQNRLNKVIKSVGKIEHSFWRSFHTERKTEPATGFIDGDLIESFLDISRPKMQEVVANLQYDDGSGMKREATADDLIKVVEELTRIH

IC50 [1] | inhibition at 0.04 µM [2] | IC50 [3] | inhibition at 0.2 µM [2] | Structure (SMILES)
10 to 50 nM | 50 to 80% | 50 to 100 nM | – | CNc1ccc(C(=O)Nc2nc(C)c(C)s2)c(NCCCCCCCNC(=O)CN2CCN(c3ccc(Nc4ncc5c(C)c(C(C)=O)c(=O)n(C6CCCC6)c5n4)nc3)CC2)n1 [CPD-4, 2-((7-(2-(4-(6-((6-acetyl-8-cyclopentyl-5-methyl-7-oxo-7,8-dihydropyrido[2,3-d]pyrimidin-2-yl)amino)pyridin-3-yl)piperazin-1-yl)acetamido)heptyl)amino)-N-(4,5-dimethylthiazol-2-yl)-6-(methylamino)nicotinamide]
≤ 10 nM | 50 to 80% | < 50 nM | > 80% | CNc1ccc(C(=O)Nc2ccc(N(C)C)nn2)c(NCC2CCN(C(=O)CCN3CCN(c4ccc(Nc5ncc6c(C)c(C(C)=O)c(=O)n(C7CCCC7)c6n5)nc4)CC3)CC2)n1 [CPD-146, 2-(((1-(3-(4-(6-((6-acetyl-8-cyclopentyl-5-methyl-7-oxo-7,8-dihydropyrido[2,3-d]pyrimidin-2-yl)amino)pyridin-3-yl)piperazin-1-yl)propanoyl)piperidin-4-yl)methyl)amino)-N-(6-(dimethylamino)pyridazin-3-yl)-6-(methylamino)nicotinamide]
≤ 10 nM | 50 to 80% | 50 to 100 nM | > 80% | CNc1ccc(C(=O)Nc2ccc(N(C)C)nn2)c(NC2CC(NC(=O)CCN3CCN(c4ccc(Nc5ncc6c(C)c(C(C)=O)c(=O)n(C7CCCC7)c6n5)nc4)CC3)C2)n1 (stereo not shown) [CPD-150, 2-((3-(3-(4-(6-((6-acetyl-8-cyclopentyl-5-methyl-7-oxo-7,8-dihydropyrido[2,3-d]pyrimidin-2-yl)amino)pyridin-3-yl)piperazin-1-yl)propanamido)cyclobutyl)amino)-N-(6-(dimethylamino)pyridazin-3-yl)-6-(methylamino)nicotinamide]
≤ 10 nM | 50 to 80% | 50 to 100 nM | > 80% | CNc1ccc(C(=O)Nc2ccc(N(C)C)nn2)c(NC2CC(C(=O)NCCN3CCN(c4ccc(Nc5ncc6c(C)c(C(C)=O)c(=O)n(C7CCCC7)c6n5)nc4)CC3)C2)n1 (stereo not shown) [CPD-157, 2-((3-((2-(4-(6-((6-acetyl-8-cyclopentyl-5-methyl-7-oxo-7,8-dihydropyrido[2,3-d]pyrimidin-2-yl)amino)pyridin-3-yl)piperazin-1-yl)ethyl)carbamoyl)cyclobutyl)amino)-N-(6-(dimethylamino)pyridazin-3-yl)-6-(methylamino)nicotinamide]
≤ 10 nM | – | < 50 nM | – | CC(=O)c1c(C)c2cnc(Nc3ccc(N4CCN(C5CCN(C(=O)[C@H]6CC[C@H](Nc7nc(C(F)(F)F)ccc7C(=O)Nc7ccc(N(C)C)nn7)CC6)C5)CC4)cn3)nc2n(C2CCCC2)c1=O (stereo partly drawn) [CPD-571, 2-((trans-4-(3-(4-(6-((6-acetyl-8-cyclopentyl-5-methyl-7-oxo-7,8-dihydropyrido[2,3-d]pyrimidin-2-yl)amino)pyridin-3-yl)piperazin-1-yl)pyrrolidine-1-carbonyl)cyclohexyl)amino)-N-(6-(dimethylamino)pyridazin-3-yl)-6-(trifluoromethyl)nicotinamide]
≤ 10 nM | – | 50 to 100 nM | – | CC(=O)c1c(C)c2cnc(Nc3ccc(N4CCN(C5CCN(C(=O)C6(F)CCC(Nc7nc(NC(C)C)ccc7C(=O)Nc7ccc(N(C)C)nn7)CC6)C5)CC4)cn3)nc2n(C2CCCC2)c1=O (stereo not shown) [CPD-572, 2-((4-(3-(4-(6-((6-acetyl-8-cyclopentyl-5-methyl-7-oxo-7,8-dihydropyrido[2,3-d]pyrimidin-2-yl)amino)pyridin-3-yl)piperazin-1-yl)pyrrolidine-1-carbonyl)-4-fluorocyclohexyl)amino)-N-(6-(dimethylamino)pyridazin-3-yl)-6-(isopropylamino)nicotinamide]
